In brackets after ≈: the same amount, converted by molar mass. Where two headings read alike, the source gives them in different places.
Experiments:
[1] = test system: JHU-313; assay: Kirby-Bauer paper disc assay, zone inhibition; settings: Escherichia coli, read-out: zone inhibition
[2] = test system: JHU-313 containing pPhoU; assay: Kirby-Bauer paper disc assay, zone inhibition; settings: Escherichia coli, read-out: zone inhibition
[3] = test system: wild type strain W3110; format: cell-based
[4] = test system: PhoU transposon mutant (JHU-313); format: cell-based
[5] = test system: wild type strain W3110; format: cell-based, E. coli; settings: 20 h after 1.5 h ampicillin pre-exposure; ampicillin 100, gentamicin 20, trimethoprim 16, norfloxacin 5 μg/ml
[6] = test system: PhoU mutant (JHU-313); assay: MIC/MBC by serial two-fold dilutions in LB broth; format: cell-based, E. coli; settings: Escherichia coli, 16 h at 37° C.; for MBC: read-out: MBC; for MIC: read-out: MIC
[7] = test system: JHU-313 containing pVector; assay: MIC/MBC by serial two-fold dilutions in LB broth; format: cell-based, E. coli; settings: Escherichia coli, 16 h at 37° C.; for MBC: read-out: MBC; for MIC: read-out: MIC
[8] = test system: PhoU deletion mutant (ΔphoU); format: cell-based
[9] = test system: PhoU mutant (JHU-313); assay: Sequential antibiotic exposure of ampicillin persisters (CFU); format: cell-based, E. coli; settings: 20 h after 1.5 h ampicillin pre-exposure; ampicillin 100, gentamicin 20, trimethoprim 16, norfloxacin 5 μg/ml
[10] = test system: wild type strain W3110; assay: microbe, parasite or virus in culture; format: cell-based, E. coli; settings: Escherichia coli
[11] = test system: W3110; assay: microbe, parasite or virus in culture; settings: Escherichia coli, read-out: zone inhibition
[12] = test system: JHU-313 containing pVector; assay: Kirby-Bauer paper disc assay, zone inhibition; settings: Escherichia coli, read-out: zone inhibition
[13] = test system: JHU-313 containing pPhoU; assay: MIC/MBC by serial two-fold dilutions in LB broth; format: cell-based, E. coli; settings: Escherichia coli, 16 h at 37° C.; for MBC: read-out: MBC; for MIC: read-out: MIC
[14] = log phase, 1 week, Ap100, Norf3
[15] = log phase, 5 hr, ampicillin 100 μg/ml (Ap100), norfloxacin 3 μg/ml (Norf3)
[16] = log phase, 3 days, Ap100, Norf3
[17] = log phase, 5 days, Ap100, Norf3
[18] = log phase, 10 days, Ap100, Norf3
[19] = log phase, ampicillin 100 μg/ml, norfloxacin 3 μg/ml
[20] = stationary phase, 3 μg/ml, 120 hr exposure
[21] = stationary phase, 1 week, Ap100, Norf3
[22] = stationary phase, 5 hr, ampicillin 100 μg/ml (Ap100), norfloxacin 3 μg/ml (Norf3)
[23] = stationary phase, 1 day, Ap100, Norf3
[24] = stationary phase, 3 days, Ap100, Norf3
[25] = stationary phase, 5 days, Ap100, Norf3
[26] = stationary phase, 10 days, Ap100, Norf3
[27] = stationary phase, norfloxacin 3 μg/ml

CCn1cc(C(=O)O)c(=O)c2cc(F)c(N3CCNCC3)cc21 [Norfloxacin, norfloxacin]
zone of inhibition at 0.1 µg/mL [1]: 28 mm | zone of inhibition at 0.5 µg/mL [1]: 30 mm | zone of inhibition at 2 µg/mL [1]: 34 mm | zone of inhibition at 4 µg/mL [1]: 37 mm | zone of inhibition at 0.1 µg/mL [2]: 27 mm | zone of inhibition at 0.5 µg/mL [2]: 31 mm | zone of inhibition at 2 µg/mL [2]: 35 mm | zone of inhibition at 4 µg/mL [2]: 36 mm | CFU [3, 14]: 0 CFU | CFU [3, 15]: 1 × 10^8 CFU | CFU ([3]; log phase, 1 day, Ap100, Norf3): 4 × 10^6 CFU | CFU [3, 16]: 5 × 10^4 CFU | CFU [3, 17]: 7 × 10^2 CFU | CFU [3, 18]: 0 CFU | time to killing of all cells [3, 19]: 5 days | viable bacteria left [3, 20]: about 10^7 CFU/ml | CFU [3, 21]: 1.5 × 10^4 CFU | CFU [3, 22]: 5 × 10^9 CFU | CFU [3, 23]: 4 × 10^9 CFU | CFU [3, 24]: 1 × 10^8 CFU | CFU [3, 25]: 4 × 10^6 CFU | CFU [3, 26]: 2 × 10^2 CFU | CFU [4, 14]: 0 CFU | CFU [4, 15]: 2 × 10^7 CFU | CFU ([4]; log phase, 1 day, Ap100, Norf3): 4 × 10^5 CFU | CFU [4, 16]: 0 CFU | CFU [4, 17]: 0 CFU | CFU [4, 18]: 0 CFU | time to killing of all cells [4, 19]: 1 days | viable bacteria left [4, 20]: no viable bacteria were left | CFU [4, 21]: 0 CFU | CFU [4, 22]: 3 × 10^8 CFU | CFU [4, 23]: 4.5 × 10^7 CFU | CFU [4, 24]: 2 × 10^5 CFU | CFU [4, 25]: 0 CFU | CFU [4, 26]: 0 CFU | time to complete killing [4, 27]: ≤ 5 days | CFU after second antibiotic exposure [5]: 7 × 10^5 CFU/ml | MBC [6]: 0.5 µg/mL (≈ 1.57 µM) | MIC [6]: 0.125 µg/mL (≈ 0.391 µM) | MBC [7]: 0.5 µg/mL (≈ 1.57 µM) | MIC [7]: 0.125 µg/mL (≈ 0.391 µM) | CFU [8, 14]: 0 CFU | CFU [8, 15]: 5 × 10^7 CFU | CFU ([8]; log phase, 1 day, Ap100, Norf3): 1 × 10^6 CFU | CFU [8, 16]: 0 CFU | CFU [8, 17]: 0 CFU | CFU [8, 18]: 0 CFU | time to killing of all cells [8, 19]: 1 days | CFU [8, 21]: 0 CFU | CFU [8, 22]: 6 × 10^8 CFU | CFU [8, 23]: 2 × 10^8 CFU | CFU [8, 24]: 3 × 10^5 CFU | CFU [8, 25]: 0 CFU | CFU [8, 26]: 0 CFU | time to complete killing [8, 27]: ≤ 5 days | CFU after second antibiotic exposure [9]: 0 CFU/ml | MBC ([10]; W3110, LB broth, 16 h at 37° C., read-out: MBC): 1 µg/mL (≈ 3.13 µM) | MIC ([10]; W3110, LB broth, 16 h at 37° C., read-out: MIC): 0.5 µg/mL (≈ 1.57 µM) | zone of inhibition at 0.1 µg/mL [11]: 24 mm | zone of inhibition at 0.5 µg/mL [11]: 27 mm | zone of inhibition at 2 µg/mL [11]: 30 mm | zone of inhibition at 4 µg/mL [11]: 32 mm | zone of inhibition at 0.1 µg/mL [12]: 29 mm | zone of inhibition at 0.5 µg/mL [12]: 35 mm | zone of inhibition at 2 µg/mL [12]: 40 mm | zone of inhibition at 4 µg/mL [12]: 44 mm | MBC [13]: 1 µg/mL (≈ 3.13 µM) | MIC [13]: 0.5 µg/mL (≈ 1.57 µM)

COc1cc(Cc2cnc(N)nc2N)cc(OC)c1OC [Trimethoprim, trimethoprim]
zone of inhibition at 0.5 µg/mL [1]: 31 mm | zone of inhibition at 1 µg/mL [1]: 38 mm | zone of inhibition at 2 µg/mL [1]: 42 mm | zone of inhibition at 0.5 µg/mL [2]: 32 mm | zone of inhibition at 1 µg/mL [2]: 33 mm | zone of inhibition at 2 µg/mL [2]: 36 mm | MBC [6]: 1 µg/mL (≈ 3.44 µM) | MIC [6]: 0.25 µg/mL (≈ 0.861 µM) | MBC [7]: 1 µg/mL (≈ 3.44 µM) | MIC [7]: 0.5 µg/mL (≈ 1.72 µM) | MBC ([10]; W3110, 16 h): 8 µg/mL (≈ 27.6 µM) | MIC ([10]; W3110, 16 h): 2 µg/mL (≈ 6.89 µM) | zone of inhibition at 0.5 µg/mL [11]: 24 mm | zone of inhibition at 1 µg/mL [11]: 26 mm | zone of inhibition at 2 µg/mL [11]: 30 mm | zone of inhibition at 0.5 µg/mL [12]: 36 mm | zone of inhibition at 1 µg/mL [12]: 40 mm | zone of inhibition at 2 µg/mL [12]: 44 mm | MBC [13]: 4 µg/mL (≈ 13.8 µM) | MIC [13]: 2 µg/mL (≈ 6.89 µM)

CN(C)[C@@H]1C(O)=C(C(N)=O)C(=O)[C@@]2(O)C(O)=C3C(=O)c4c(O)cccc4[C@@](C)(O)[C@H]3C[C@@H]12 [Tetracycline]
zone of inhibition at 12.5 µg/mL [1]: 26 mm | zone of inhibition at 25 µg/mL [1]: 32 mm | zone of inhibition at 50 µg/mL [1]: 32 mm | zone of inhibition at 12.5 µg/mL [2]: 30 mm | zone of inhibition at 25 µg/mL [2]: 32 mm | zone of inhibition at 50 µg/mL [2]: 32 mm | zone of inhibition at 12.5 µg/mL [11]: 22 mm | zone of inhibition at 25 µg/mL [11]: 23 mm | zone of inhibition at 50 µg/mL [11]: 23 mm | zone of inhibition at 12.5 µg/mL [12]: 34 mm | zone of inhibition at 25 µg/mL [12]: 34 mm | zone of inhibition at 50 µg/mL [12]: 34 mm

Source: patent US20100210602A1, “PhoU (PerF), A P[…] INVOLVED IN [sequence] FORMATION AND TOLERANCE TO MULTIPLE ANTIBIOTICS AND [sequence] AS A DRUG TARGET FOR [sequence] BACTERIA” (priority 2006, published 2010)
